Data on one molecule can be found in ChEMBL document CHEMBL6109120, “Discovery of Novel SIK2/3 Inhibitors for the Potential Treatment of MEF2C+ Acute Myeloid Leukemia (AML)” (J Med Chem, 2025).

One assay deals with Cytochrome P450 2C9 (Homo sapiens, UniProt P11712). Nature of the assay: Inhibition of CYP2C9 in human liver microsomes assessed as diclofenac 4-hydroxylation reaction measured after 30 mins by LC/MS/MS analysis. The class given is ADME, Microsome. For orientation: Microsomes from liver hold many membrane-bound enzymes, among them those of drug oxidation.
In a further assay the target is Cytochrome P450 2D6 (Homo sapiens, UniProt P10635). Nature of the assay: Inhibition of CYP2D6 in human liver microsomes assessed as dextromethorphan O-demethylation reaction measured after 30 mins by LC/MS/MS analysis. The class given is ADME, Microsome.
Assay [1] concerns the target T1, Serine/threonine-protein kinase TBK1 (Homo sapiens, UniProt Q9UHD2).
T1 sequence (Q9UHD2 whole entry): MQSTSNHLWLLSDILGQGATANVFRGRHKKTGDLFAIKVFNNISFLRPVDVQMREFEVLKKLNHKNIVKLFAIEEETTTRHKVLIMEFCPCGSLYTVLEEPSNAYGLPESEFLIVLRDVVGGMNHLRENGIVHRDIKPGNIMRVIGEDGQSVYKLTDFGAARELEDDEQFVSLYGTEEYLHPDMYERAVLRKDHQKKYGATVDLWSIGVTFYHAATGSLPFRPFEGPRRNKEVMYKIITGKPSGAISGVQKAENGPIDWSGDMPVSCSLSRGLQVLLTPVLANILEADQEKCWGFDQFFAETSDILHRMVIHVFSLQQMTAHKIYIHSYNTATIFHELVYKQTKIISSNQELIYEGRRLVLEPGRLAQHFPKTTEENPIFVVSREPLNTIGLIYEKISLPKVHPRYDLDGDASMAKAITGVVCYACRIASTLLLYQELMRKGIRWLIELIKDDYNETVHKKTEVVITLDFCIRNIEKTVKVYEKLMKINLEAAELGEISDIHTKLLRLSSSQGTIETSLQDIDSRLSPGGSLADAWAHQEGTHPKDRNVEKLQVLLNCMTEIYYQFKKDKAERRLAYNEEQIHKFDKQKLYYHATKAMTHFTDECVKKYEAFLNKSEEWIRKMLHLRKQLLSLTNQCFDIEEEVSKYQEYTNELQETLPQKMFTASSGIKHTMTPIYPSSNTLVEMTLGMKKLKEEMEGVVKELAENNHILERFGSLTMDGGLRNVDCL
Description: Binding affinity to human TBK1 by KINOMEscan assay

In assay [2] the target is T2, Receptor-type tyrosine-protein kinase FLT3 (Homo sapiens, UniProt P36888).
T2 sequence (P36888 whole entry): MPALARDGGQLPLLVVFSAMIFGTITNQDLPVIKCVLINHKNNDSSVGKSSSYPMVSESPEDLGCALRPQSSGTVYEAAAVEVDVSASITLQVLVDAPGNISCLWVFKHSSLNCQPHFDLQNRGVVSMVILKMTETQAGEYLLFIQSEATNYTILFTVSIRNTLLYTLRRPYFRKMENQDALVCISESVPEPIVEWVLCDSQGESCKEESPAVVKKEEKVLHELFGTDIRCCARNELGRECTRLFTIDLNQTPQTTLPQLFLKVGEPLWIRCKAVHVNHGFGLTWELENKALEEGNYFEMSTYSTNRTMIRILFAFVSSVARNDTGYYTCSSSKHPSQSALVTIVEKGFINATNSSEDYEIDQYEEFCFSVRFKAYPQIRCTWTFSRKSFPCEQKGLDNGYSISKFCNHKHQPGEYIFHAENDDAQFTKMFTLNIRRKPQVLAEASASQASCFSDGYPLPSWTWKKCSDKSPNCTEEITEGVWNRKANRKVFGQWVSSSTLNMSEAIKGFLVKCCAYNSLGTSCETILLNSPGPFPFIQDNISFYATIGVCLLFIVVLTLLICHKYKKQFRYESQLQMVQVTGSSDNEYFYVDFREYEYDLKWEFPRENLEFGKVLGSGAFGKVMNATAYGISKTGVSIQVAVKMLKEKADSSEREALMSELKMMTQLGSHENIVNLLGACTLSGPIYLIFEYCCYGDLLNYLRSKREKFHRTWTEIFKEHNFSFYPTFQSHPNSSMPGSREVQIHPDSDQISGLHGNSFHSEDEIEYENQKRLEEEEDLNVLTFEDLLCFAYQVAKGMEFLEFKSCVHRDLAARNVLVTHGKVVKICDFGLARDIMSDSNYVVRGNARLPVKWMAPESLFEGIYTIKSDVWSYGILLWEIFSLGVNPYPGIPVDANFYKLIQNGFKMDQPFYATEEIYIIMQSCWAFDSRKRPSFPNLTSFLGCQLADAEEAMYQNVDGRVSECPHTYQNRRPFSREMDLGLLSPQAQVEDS
Nature of the assay: Binding affinity to human FLT3 by KINOMEscan assay.

Assay [3] deals with Platelet-derived growth factor receptor alpha (Homo sapiens, UniProt P16234).
Description: Binding affinity to human PDGFRalpha by KINOMEscan assay
A further assay deals with Cytochrome P450 3A4 (Homo sapiens, UniProt P08684). Nature of the assay: Inhibition of CYP3A4 in human liver microsomes assessed as midazolam 1-hydroxylation reaction measured after 30 mins by LC/MS/MS analysis. The class given is ADME, Microsome.
Assay [4] has as its target T3, Dual specificity mitogen-activated protein kinase kinase 5 (Homo sapiens, UniProt Q13163).
T3 sequence (Q13163 whole entry): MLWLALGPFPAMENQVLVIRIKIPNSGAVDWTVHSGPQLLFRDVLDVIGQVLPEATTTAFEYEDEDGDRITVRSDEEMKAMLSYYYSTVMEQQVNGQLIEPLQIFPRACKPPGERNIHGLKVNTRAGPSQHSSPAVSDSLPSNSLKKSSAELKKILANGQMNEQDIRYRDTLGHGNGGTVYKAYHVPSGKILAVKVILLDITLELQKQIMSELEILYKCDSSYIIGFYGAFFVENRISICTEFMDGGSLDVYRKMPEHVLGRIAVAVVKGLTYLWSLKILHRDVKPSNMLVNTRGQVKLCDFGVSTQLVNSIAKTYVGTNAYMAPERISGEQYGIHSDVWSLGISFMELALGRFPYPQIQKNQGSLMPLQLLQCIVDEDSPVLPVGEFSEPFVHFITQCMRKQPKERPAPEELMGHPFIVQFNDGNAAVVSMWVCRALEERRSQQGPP
Description: Binding affinity to human MEK5 by KINOMEscan assay

Structures are written as SMILES.

Cytochrome P450 3A4, sequence (P08684 whole entry): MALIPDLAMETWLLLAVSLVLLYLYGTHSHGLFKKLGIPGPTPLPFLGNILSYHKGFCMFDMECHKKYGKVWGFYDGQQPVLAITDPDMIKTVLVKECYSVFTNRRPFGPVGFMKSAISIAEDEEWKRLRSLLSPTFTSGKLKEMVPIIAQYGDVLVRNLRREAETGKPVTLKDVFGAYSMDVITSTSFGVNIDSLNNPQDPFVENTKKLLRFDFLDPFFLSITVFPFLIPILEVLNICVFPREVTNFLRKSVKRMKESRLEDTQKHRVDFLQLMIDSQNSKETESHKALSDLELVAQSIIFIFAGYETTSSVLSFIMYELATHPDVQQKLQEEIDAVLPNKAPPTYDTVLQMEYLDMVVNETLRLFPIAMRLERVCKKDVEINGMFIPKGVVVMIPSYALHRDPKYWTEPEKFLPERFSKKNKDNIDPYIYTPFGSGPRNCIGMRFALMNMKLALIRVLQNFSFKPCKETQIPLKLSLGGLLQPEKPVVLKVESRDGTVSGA
Cytochrome P450 2D6, sequence (P10635 whole entry): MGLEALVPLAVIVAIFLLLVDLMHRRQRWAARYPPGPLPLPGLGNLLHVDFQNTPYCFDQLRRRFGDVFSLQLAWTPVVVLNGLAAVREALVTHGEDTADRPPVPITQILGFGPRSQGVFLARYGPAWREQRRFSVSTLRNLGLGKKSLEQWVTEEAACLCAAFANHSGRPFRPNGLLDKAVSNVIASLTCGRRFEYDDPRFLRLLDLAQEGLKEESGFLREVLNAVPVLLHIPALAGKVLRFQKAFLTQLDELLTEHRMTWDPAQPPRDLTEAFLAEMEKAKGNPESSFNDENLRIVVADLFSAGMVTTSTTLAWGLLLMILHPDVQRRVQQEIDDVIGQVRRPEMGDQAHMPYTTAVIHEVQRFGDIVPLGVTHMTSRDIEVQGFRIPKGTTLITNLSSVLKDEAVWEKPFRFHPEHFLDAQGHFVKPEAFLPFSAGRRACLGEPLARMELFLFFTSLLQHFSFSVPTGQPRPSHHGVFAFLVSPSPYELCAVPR
Cytochrome P450 2C9, sequence (P11712 whole entry): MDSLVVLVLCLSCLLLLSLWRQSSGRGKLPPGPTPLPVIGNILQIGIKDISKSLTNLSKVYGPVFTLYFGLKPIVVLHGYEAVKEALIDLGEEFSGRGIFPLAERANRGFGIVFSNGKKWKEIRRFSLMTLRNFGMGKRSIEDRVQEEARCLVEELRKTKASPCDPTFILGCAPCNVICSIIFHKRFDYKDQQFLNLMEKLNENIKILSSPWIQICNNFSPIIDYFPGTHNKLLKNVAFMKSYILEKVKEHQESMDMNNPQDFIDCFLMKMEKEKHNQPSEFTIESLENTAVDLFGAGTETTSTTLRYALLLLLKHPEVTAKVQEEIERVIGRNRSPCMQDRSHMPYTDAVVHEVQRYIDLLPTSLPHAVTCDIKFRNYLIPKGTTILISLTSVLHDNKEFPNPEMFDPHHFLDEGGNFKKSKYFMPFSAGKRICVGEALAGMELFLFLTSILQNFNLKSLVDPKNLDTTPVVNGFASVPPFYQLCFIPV
Platelet-derived growth factor receptor alpha, sequence (P16234 whole entry): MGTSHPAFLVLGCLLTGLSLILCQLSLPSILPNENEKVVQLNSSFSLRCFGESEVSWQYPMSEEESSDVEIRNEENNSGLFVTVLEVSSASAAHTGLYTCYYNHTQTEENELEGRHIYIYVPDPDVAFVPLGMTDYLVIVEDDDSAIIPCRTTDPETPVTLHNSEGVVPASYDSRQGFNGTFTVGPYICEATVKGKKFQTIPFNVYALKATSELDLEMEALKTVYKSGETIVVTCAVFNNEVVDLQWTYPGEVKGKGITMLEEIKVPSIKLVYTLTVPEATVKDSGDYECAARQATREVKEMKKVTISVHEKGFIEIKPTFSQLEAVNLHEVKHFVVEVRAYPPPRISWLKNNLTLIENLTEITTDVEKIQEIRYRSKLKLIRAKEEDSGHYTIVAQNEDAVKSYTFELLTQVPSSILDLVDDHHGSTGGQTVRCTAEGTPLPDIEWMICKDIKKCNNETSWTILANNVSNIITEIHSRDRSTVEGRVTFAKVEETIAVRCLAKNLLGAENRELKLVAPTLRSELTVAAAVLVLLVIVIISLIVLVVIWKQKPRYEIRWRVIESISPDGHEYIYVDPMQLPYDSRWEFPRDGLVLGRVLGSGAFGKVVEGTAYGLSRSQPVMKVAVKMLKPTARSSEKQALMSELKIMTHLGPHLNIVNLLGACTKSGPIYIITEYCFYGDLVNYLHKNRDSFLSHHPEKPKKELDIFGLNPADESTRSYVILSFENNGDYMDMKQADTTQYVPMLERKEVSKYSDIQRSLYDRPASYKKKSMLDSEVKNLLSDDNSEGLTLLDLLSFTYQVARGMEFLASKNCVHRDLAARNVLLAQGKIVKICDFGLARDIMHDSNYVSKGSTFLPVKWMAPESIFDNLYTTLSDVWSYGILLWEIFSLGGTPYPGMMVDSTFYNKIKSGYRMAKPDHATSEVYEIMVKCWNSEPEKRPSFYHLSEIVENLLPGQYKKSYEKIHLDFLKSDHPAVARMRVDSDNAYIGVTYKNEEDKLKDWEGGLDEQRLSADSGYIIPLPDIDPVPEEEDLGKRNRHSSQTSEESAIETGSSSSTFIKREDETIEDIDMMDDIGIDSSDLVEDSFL

Consider `COc1nc(-c2cc(-c3cnn(C)c3)cnc2N)cc2c1C(=O)N(CC(F)(F)F)CC2`, for which the IC50 on Cytochrome P450 2C9 was > 50 µM; on Cytochrome P450 2D6, > 50 µM; in assay [1], 230 nM; in assay [2], 85 nM; in assay [3] it was 31 nM; on Cytochrome P450 3A4 it was > 50 µM. The molecule further showed an IC50 in assay [4] of 2650 nM.

The IC50 is the point on the concentration scale where inhibition reaches its midpoint.
